Like-named read-outs stand apart in the source and are kept apart here.
Key:
human Src kinase = target: T1, human Src kinase (Homo sapiens, UniProt P12931); assay: SRC inhibition assay (radioactivity-based or spectrophotometric assay); assay type: biochemical; conditions: recombinant human Src kinase, assay A or B
T1 construct: full length recombinant human Src kinase (from Upstate Biotechnology, cat. no. 14-117); purchased Upstate Biotechnology 14-117; host or cells: baculo viral cells
Experimental: The compounds were evaluated as inhibitors of human Src kinase using either a radioactivity-based assay or spectrophotometric assay. The compounds were assayed as inhibitors of full length recombinant human Src kinase (from Upstate Biotechnology, cat. no. 14-117) expressed and purified from baculo viral cells. […] P-0275). […] In a typical assay, all the reaction components with the exception of ATP were pre-mixed and aliquoted into assay plate wells. […] The assay plate was incubated at 30° C. for 10 min before initiating the reaction with ^33P-ATP. After 20 min of reaction, the reactions were quenched with 150 μl of 10% trichloroacetic acid (TCA) containing 20 mM Na3PO4. The quenched samples were then transferred to a 96-well filter plate (Whatman, UNI-Filter GF/F Glass Fiber Filter, cat no. 7700-3310) installed on a filter plate vacuum manifold. Filter plates were washed four times with 10% TCA containing 20 mM Na3PO4 and then 4 times with methanol. 200 μl of scintillation fluid was then added to each well. The plates were sealed and the amount of radioactivity associated with the filters was quantified on a TopCount scintillation counter. The radioactivity incorporated was plotted as a function of the inhibitor concentration. The data was fitted to a competitive inhibition kinetics model to get the Ki for the compound. The ADP produced from ATP by the human recombinant Src kinase-catalyzed phosphorylation of poly Glu-Tyr substrate was quanitified using a coupled enzyme assay (Fox et al (1998) Protein Sci 7, 2249). In this assay one molecule of NADH is oxidised to NAD for every molecule of ADP produced in the kinase reaction. The disappearance of NADH can be conveniently followed at 340 nm. […] In a typical assay, all the reaction components with the exception of ATP were pre-mixed and aliquoted into assay plate wells. […] The absorbance change at 340 nm with time, the rate of the reaction, was monitored on a molecular devices plate reader. The data of rate as a function of the inhibitor concentration was fitted to competitive inhibition kinetics model to get the Ki for the compound.

Aurora-2 = target: T2, Aurora-2 (Homo sapiens, UniProt O14965); assay: Ki determination for the inhibition of Aurora-2 (coupled enzyme assay); assay type: biochemical; conditions: 70 nM Aurora-2, 30° C.
T2 sequence (O14965 1-403): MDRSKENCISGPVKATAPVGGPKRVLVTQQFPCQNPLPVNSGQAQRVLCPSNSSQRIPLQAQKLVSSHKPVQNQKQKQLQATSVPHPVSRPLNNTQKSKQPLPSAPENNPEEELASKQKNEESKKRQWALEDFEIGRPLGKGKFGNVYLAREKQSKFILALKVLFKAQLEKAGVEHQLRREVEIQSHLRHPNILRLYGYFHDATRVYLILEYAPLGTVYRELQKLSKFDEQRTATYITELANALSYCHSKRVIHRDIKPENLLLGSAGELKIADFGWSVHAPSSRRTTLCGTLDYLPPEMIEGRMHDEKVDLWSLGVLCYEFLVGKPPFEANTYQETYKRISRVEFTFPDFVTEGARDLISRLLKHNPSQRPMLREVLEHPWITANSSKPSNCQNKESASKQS
Procedure, shortened: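 Ki came from reaction rates plotted against inhibitor concentration, with rates taken as A340 decrease over 5 min at 30° C. Enzyme (70 nM final) was added after 10 min compound preincubation; stock buffer held […], 800 μM LRRASLG, PK/LDH coupling, pH 7.5.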

GSK-3β (AA 1-420) = target: T3, GSK-3β (AA 1-420) (Homo sapiens, UniProt P49841); assay: Ki determination for the inhibition of GSK-3 (coupled enzyme system); assay type: biochemical; conditions: 20 μM ATP, 20 nM GSK-3β, 30° C.
T3 construct: GSK-3β (AA 1-420)
T3 sequence (P49841 whole entry, the tested form may be a part): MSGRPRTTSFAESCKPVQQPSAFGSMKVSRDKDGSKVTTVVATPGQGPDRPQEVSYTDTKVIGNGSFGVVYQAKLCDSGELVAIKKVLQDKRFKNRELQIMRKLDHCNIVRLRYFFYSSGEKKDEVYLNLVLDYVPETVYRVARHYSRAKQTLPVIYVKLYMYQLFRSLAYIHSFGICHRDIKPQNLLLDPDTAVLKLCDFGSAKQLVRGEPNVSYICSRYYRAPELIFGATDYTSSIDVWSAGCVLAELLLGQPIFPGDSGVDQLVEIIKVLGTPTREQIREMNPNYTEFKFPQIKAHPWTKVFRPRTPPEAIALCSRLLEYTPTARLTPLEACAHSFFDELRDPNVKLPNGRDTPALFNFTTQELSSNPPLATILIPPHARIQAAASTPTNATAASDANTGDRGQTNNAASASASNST
Procedure, shortened: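 GSK-3β (AA 1-420, 20 nM) was run in a pyruvate kinase/LDH-coupled NADH assay in 100 mM HEPES pH 7.5, 10 mM MgCl2, 25 mM NaCl, 1 mM DTT, 1.5% DMSO, with 300 μM phosphopeptide substrate. Compound (0.002–30 μM) was preincubated 10 min at 30° C, then 20 μM ATP was added.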

T1 sequence (P12931 whole entry): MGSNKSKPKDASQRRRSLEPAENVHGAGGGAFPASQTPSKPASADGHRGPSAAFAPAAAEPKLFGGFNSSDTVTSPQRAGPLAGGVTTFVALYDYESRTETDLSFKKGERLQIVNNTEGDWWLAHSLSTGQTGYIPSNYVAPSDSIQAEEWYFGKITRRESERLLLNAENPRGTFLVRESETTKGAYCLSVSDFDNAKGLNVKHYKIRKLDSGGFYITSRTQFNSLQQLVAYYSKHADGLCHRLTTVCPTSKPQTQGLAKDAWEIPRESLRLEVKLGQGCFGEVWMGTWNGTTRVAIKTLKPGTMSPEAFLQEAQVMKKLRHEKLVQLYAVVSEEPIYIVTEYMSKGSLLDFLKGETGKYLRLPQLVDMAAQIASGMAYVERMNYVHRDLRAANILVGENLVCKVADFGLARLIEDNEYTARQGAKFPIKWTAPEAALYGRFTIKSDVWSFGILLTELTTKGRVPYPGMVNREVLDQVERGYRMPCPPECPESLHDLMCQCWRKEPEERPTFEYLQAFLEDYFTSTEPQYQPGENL

Ki (human Src kinase; read-out: Ki value for SRC) [nM] | Ki (Aurora-2) [nM] | melting point [°C] | Ki (GSK-3β (AA 1-420)) [nM] | Ki (human Src kinase; read-out: Ki value on SRC) [nM] | Compound
1000 to 6000 | 100 to 1000 | 164 to 167 | 100 to 1000 |  | Cc1cc(Nc2nc(Nc3ccc(N)cc3)nc3ccccc23)n[nH]1 [IIc-66, [2-(4-Aminophenylamino)-quinazolin-4-yl]-(5-methyl-2H-pyrazol-3-yl)-amine]
 | < 100 | 283 to 284 | < 100 | < 100 | Cc1cccc(Oc2nc(Nc3cc(C4CC4)[nH]n3)c3ccccc3n2)c1 [IIb-5, (5-Cyclopropyl-2H-pyrazol-3-yl)-[2-(3-methylphenoxy)-quinazolin-4-yl]-amine]
 | < 100 | 250 to 252 | < 100 | < 100 | Clc1cccc(Sc2nc(Nc3cc(C4CC4)[nH]n3)c3ccccc3n2)c1Cl [IIa-30, (5-Cyclopropyl-2H-pyrazol-3-yl)-[2-(2,3-dichlorophenylsulfanyl)-quinazolin-4-yl]-amine]
1000 to 6000 | < 100 |  | 100 to 1000 |  | COC(=O)c1cccc(Oc2nc(Nc3cc(C)[nH]n3)c3ccccc3n2)c1 [IIb-9, [2-(3-Methoxycarbonylphenoxy)-quinazolin-4-yl]-(5-methyl-2H-pyrazol-3-yl)-amine]
 | < 100 | 193 | < 100 | < 100 | c1cncc(CNc2nc(Nc3cc(C4CC4)[nH]n3)c3ccccc3n2)c1 [IIc-38, (5-Cyclopropyl-2H-pyrazol-3-yl)-[2-(pyridin-3-ylmethylamino)-quinazolin-4-yl]-amine]
 | < 100 |  | < 100 | < 100 | Cc1cccc(Sc2nc(Nc3cc(C4CC4)[nH]n3)c3ccccc3n2)c1 [IIa-23, (5-Cyclopropyl-2H-pyrazol-3-yl)-[2-(3-methylphenylsulfanyl)-quinazolin-4-yl]-amine]
1000 to 6000 | < 100 | 241 to 243 | 1000 to 7000 |  | Cc1cc(Nc2nc(Sc3ccc(NC(=O)CN(C)C)cc3)nc3ccccc23)n[nH]1 [IIa-68, {2-[4-(2-Dimethylamino-acetylamino)-phenylsulfanyl]-quinazolin-4-yl}-(5-methyl-2H-pyrazol-3-yl)-amine]
1000 to 6000 | 100 to 1000 | 246 to 248 | 1000 to 7000 |  | Cc1cc(Nc2nc(Sc3ccc(C(=O)NCCN4CCOCC4)cc3)nc3ccccc23)n[nH]1 [IIa-65, (5-Methyl-2H-pyrazol-3-yl)-{2-[4-(2-morpholin-4-yl-ethylcarbamoyl)-phenylsulfanyl]-quinazolin-4-yl}-amine]
 | < 100 | 235 to 238 | < 100 | < 100 | Clc1cccc(Sc2nc(Nc3cc(C4CC4)[nH]n3)c3ccccc3n2)c1 [IIa-31, [2-(3-Chlorophenylsulfanyl)-quinazolin-4-yl]-(5-cyclopropyl-2H-pyrazol-3-yl)-amine]
 | < 100 | 244 to 246 | < 100 | < 100 | Cc1cc(Nc2nc(Nc3cc(C4CC4)[nH]n3)c3ccccc3n2)ccc1Cl [IIc-24, [2-(4-Chloro-3-methylphenylamino)-quinazolin-4-yl]-(5-cyclopropyl-2H-pyrazol-3-yl)-amine]
1000 to 6000 | 100 to 1000 |  | 100 to 1000 |  | Cc1cc(Nc2nc(Sc3ccccc3N)nc3ccccc23)n[nH]1 [IIa-20, [2-(2-Aminophenylsulfanyl)-quinazolin-4-yl]-(5-methyl-2H-pyrazol-3-yl)-amine]
1000 to 6000 |  | 234 to 235 | 100 to 1000 |  | Cc1cc(Nc2cc(N3CCCCC3)nc(SCc3cccc(Cl)c3)n2)n[nH]1 [IIIa-34, [2-(3-Chloro-benzylsulfanyl)-6-(piperidin-1-yl)-pyrimidin-4-yl]-(5-methyl-2H-pyrazol-3-yl)-amine]
1000 to 6000 |  | 276 to 277 | 1000 to 7000 |  | CC(=O)Nc1ccc(Sc2nc(Nc3cc(C)[nH]n3)c(C)c(-c3ccccc3)n2)cc1 [IIIa-21, [2-(4-Acetamido-phenyl-sulfanyl)-5-methyl-6-phenyl-pyrimidin-4-yl]-(5-methyl-2H-pyrazol-3-yl)-amine]
 | < 100 | 255 to 256 |  | < 100 | Cc1ccc(Sc2nc(Nc3cc(C4CC4)[nH]n3)c3ccccc3n2)cc1C [IIa-33, (5-Cyclopropyl-2H-pyrazol-3-yl)-[2-(3,4-dimethylphenylsulfanyl)-quinazolin-4-yl]-amine]
1000 to 6000 |  | 193 to 195 | 1000 to 7000 |  | COCCNc1cc(Nc2cc(C)[nH]n2)nc(SCc2ccc(S(=O)(=O)N3CCOCC3)cc2)n1 [IIIa-36, {6-(2-Methoxy-ethylamino)-2-[4-(morpholinesulfonyl)-benzylsulfanyl]-pyrimidin-4-yl}-(5-methyl-2H-pyrazol-3-yl)-amine]
 | < 100 |  | < 100 | < 100 | COc1cccc(Sc2nc(Nc3cc(C4CC4)[nH]n3)c3ccccc3n2)c1 [IIa-24, (5-Cyclopropyl-2H-pyrazol-3-yl)-[2-(3-methoxyphenylsulfanyl)-quinazolin-4-yl]-amine]
 |  | 233 to 234 | 100 to 1000 | < 100 | c1ccc(-c2cc(Nc3cc(C4CC4)[nH]n3)nc(Sc3ccc4ccccc4c3)n2)cc1 [IIIa-1, (5-Cyclopropyl-2H-pyrazol-3-yl)-[2-(naphtalen-2-ylsulfanyl)-6-phenylpyrimidin-4-yl]-amine]
 | < 100 | 277 to 279 |  | < 100 | c1ccc2c(Nc3cc(C4CC4)[nH]n3)nc(Oc3ccc4c(c3)CCCC4)nc2c1 [IIb-4, (5-Cyclopropyl-2H-pyrazol-3-yl)-[2-(5,6,7,8-tetrahydronaphthalen-2-yloxy)-quinazolin-4-yl]-amine]
 | < 100 |  | 100 to 1000 | < 100 | Cc1cc(Nc2nc(NCc3ccc(F)cc3)nc3ccccc23)n[nH]1 [IIc-13, [2-(4-Fluorobenzylamino)-quinazolin-4-yl]-(5-methyl-2H-pyrazol-3-yl)-amine]
 | < 100 | 285 to 288 |  | < 100 | c1ccc2cc(Sc3nc(Nc4cc(C5CC5)[nH]n4)c4ccccc4n3)ccc2c1 [IIa-27, (5-Cyclopropyl-2H-pyrazol-3-yl)-[2-(naphtalen-2-ylsulfanyl)-quinazolin-4-yl]-amine]
1000 to 6000 |  | 206 to 207 | 100 to 1000 |  | Cc1cc(Nc2cc(N3CCN(C)CC3)nc(SCc3ccc(S(=O)(=O)N4CCOCC4)cc3)n2)n[nH]1 [IIIa-37, {6-(4-methylpiperazin-1-yl)-2-[4-(morpholinesulfonyl)-benzylsulfanyl]-pyrimidin-4-yl}-(5-methyl-2H-pyrazol-3-yl)-amine]
1000 to 6000 |  | 213 to 215 |  |  | Cc1cc(Nc2cc(-c3ccccc3)nc(Sc3ccc(NC(=O)CN(C)C)cc3)n2)n[nH]1 [IIIa-25, {2-[4-(2-Dimethylamino-acetylamino)-phenylsulfanyl]-6-phenyl-pyrimidin-4-yl}-(5-methyl-2H-pyrazol-3-yl)-amine]
1000 to 6000 | 100 to 1000 | 210 to 213 |  |  | Cc1cc(Nc2nc(Sc3ccc(C(=O)NCCCN(C)C)cc3)nc3ccccc23)n[nH]1 [IIa-70, {2-[4-(3-Dimethylamino-propylcarbamoyl)-phenylsulfanyl]-quinazolin-4-yl}-(5-methyl-2H-pyrazol-3-yl)-amine]
